Experiment [1] is described as follows: Antiproliferative activity against p53-deficient human Saos2 cells after 72 hrs by fluorescence plate reader analysis. The experiment is classed as functional, cell-based. Conditions: SAOS-2, 72 h.
A further experiment relates to SJSA-1. Kind of experiment: Antiproliferative activity against human SJSA1 cells expressing wild-type p53 after 72 hrs by fluorescence plate reader analysis. It counts as functional, cell-based. Conditions: SJSA-1, 72 h.
For experiment [2], the target named is E3 ubiquitin-protein ligase Mdm2 (Homo sapiens, UniProt Q00987). Kind of experiment: Inhibition of MDM2 (unknown origin) (2 to 188) assessed as inhibition of p53-MDM2 interaction by TR-FRET assay. (In general: Time-resolved FRET reads energy transfer from a long-lived donor to a nearby acceptor.)
Chain of E3 ubiquitin-protein ligase Mdm2 (Q00987 whole entry): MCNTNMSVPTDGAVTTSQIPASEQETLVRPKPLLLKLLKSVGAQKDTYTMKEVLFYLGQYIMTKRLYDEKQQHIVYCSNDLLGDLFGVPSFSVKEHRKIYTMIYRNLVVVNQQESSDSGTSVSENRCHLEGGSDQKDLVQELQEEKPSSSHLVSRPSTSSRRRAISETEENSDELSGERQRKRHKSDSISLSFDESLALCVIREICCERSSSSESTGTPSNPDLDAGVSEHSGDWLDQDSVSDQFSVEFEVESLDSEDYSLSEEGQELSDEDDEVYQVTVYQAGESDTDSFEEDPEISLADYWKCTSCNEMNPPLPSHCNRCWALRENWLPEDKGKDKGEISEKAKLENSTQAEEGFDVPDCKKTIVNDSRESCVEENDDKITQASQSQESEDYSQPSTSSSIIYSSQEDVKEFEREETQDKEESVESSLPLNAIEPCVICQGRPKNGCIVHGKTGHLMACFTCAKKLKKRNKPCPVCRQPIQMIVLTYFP

Data on 14 compounds can be found in ChEMBL document CHEMBL3259552, “Tetra-substituted imidazoles as a new class of inhibitors of the p53-MDM2 interaction” (Bioorg Med Chem Lett, 2014).

SMILES strings stand for the structures.

As to `CC(C)(C)NC(=O)Cc1ccc(Cl)c(F)c1-n1c(C2CCCCC2)nc(-c2nnc(N)o2)c1-c1ccc(F)c(Cl)c1`, the IC50 (usually the concentration that gives 50% inhibition) turned out to be 23 µM in experiment [1] and 0.5 µM with SJSA-1.

For `O=C(O)c1nc(-c2ccccc2)n(-c2cccc(Cl)c2F)c1-c1ccc(F)c(Cl)c1`, the IC50 in experiment [1] was greater than 30 µM; in the experiment with SJSA-1 it was 14 µM. The like results for `Nc1nnc(-c2nc(C3CCCCC3)n(-c3cccc(Cl)c3F)c2-c2ccc(F)c(Cl)c2)o1` were, in that order, greater than 30 µM and 3.5 µM. `O=C(O)c1nc(C2CCCCC2)n(-c2cccc(Cl)c2F)c1-c1ccc(F)c(Cl)c1`: the IC50 in experiment [1] was greater than 30 µM; in the experiment with SJSA-1, 13.2 µM.

In the case of `Cc1nnc(-c2nc(C3CCCCC3)n(-c3cccc(Cl)c3F)c2-c2ccc(F)c(Cl)c2)o1`, the IC50 is greater than 30 µM in experiment [1] and 5.9 µM with SJSA-1. For `CNC(=O)Cc1ccc(Cl)c(F)c1-n1c(C2CCCCC2)nc(-c2nnc(N)o2)c1-c1ccc(F)c(Cl)c1`, in that order: 24 µM and 1.4 µM. As to `O=C(O)c1nc(-c2ccccc2)n(-c2cccc(Cl)c2F)c1-c1cccc(Cl)c1`, the half-maximal inhibitory concentration (IC50) in experiment [1] is greater than 30 µM; in the experiment with SJSA-1 it was 12.2 µM.

For the compound `NC(=O)c1nc(C2CCCCC2)n(-c2cccc(Cl)c2F)c1-c1ccc(F)c(Cl)c1`, the IC50 in experiment [1] stood at 29 µM; with SJSA-1 it was 4.1 µM.

Turning to `Nc1nnc(-c2nc(C3CCCCC3)n(-c3c(CC(=O)NC4CCCCC4)ccc(Cl)c3F)c2-c2ccc(F)c(Cl)c2)o1`, the IC50 in experiment [1] was 28 µM; in the experiment with SJSA-1, 1.4 µM.

Regarding `Fc1ccc(-c2c(-c3nnn[nH]3)nc(C3CCCCC3)n2-c2cccc(Cl)c2F)cc1Cl`, the figures for the IC50 (in experiment [1]; in the experiment with SJSA-1) were greater than 30 µM and 4.4 µM, respectively. For `Cc1cccc(-c2nc(C(=O)O)c(-c3cccc(Cl)c3)n2-c2cc(Cl)ccc2C)c1`, the IC50 in experiment [1] was greater than 30 µM; in the experiment on SJSA-1, 10.2 µM. `O=C(O)c1nc(-c2ccccc2)n(-c2cccc(Cl)c2)c1-c1cccc(Cl)c1`: in experiment [2], the IC50 was determined as 0.12 µM. For `Cc1ccc(Cl)cc1-n1c(-c2ccccc2)nc(C(=O)O)c1-c1cccc(Cl)c1`, the IC50 was greater than 30 µM in experiment [1] and 16.1 µM with SJSA-1. The like results for `Nc1nnc(-c2nc(C3CCCCC3)n(-c3c(CC(=O)Nc4ccccc4)ccc(Cl)c3F)c2-c2ccc(F)c(Cl)c2)o1` were, in that order, 30 µM and 2.5 µM.
